Measured values published in US7316814B2, “Cosmetic composition comprising a silicone-containing compound and a fatty acid ester” (L'Oreal, priority 1995, dated 2008).

Test: Maximum mass content of ester added to a gum-in-silicone-oil solution without precipitation of the gum
Type: physicochemical
Details: 25° C.; 13% gum solution in polydimethylsiloxane (Q2-1403)
Procedure: The maximum mass content of ester which may be added, at 25° C., to a solution of gum in a silicone oil without observing precipitation of the gum was measured.

Compound | Maximum mass content of ester which may be added without observing precipitation of the gum
Octyldodecyl neopentanoate | to at least 1000%
CC(C)CCCCCCCCCCCCCCCOC(=O)CCCCCC(C)C [Isostearyl isononanoate] | 60%
CCCCCCCCC(CCCCCC)COC(=O)CCCCCC(C)C (stereo not shown) [2-hexyldecyl isononanoate] | 72%
CC(C)CCCCCCCCCCCCCCCOC(=O)C(C)(C)C [Isostearyl neopentanoate] | 68%
